Literature values in patent publication EP2151446B1, “Process for the preparation of bidentate schiff base ruthenium catalysts containing a salicylaldimine-type ligand” (Rimtec Corporation, priority 2008, dated 2010).

Details: in water

| pKb | SMILES |
| --- | --- |
| about 3.69 | O=C([O-])[O-].[Li+].[Li+] [Li2CO3] |
| about 3.69 | O=C([O-])[O-].[K+].[K+] [Entry K2CO3] |
| about 3.69 | O=C([O-])[O-].[Na+].[Na+] [Na2CO3] |
| about 3.69 | O=C([O-])[O-].[Cu+2] [CuCO3] |
